Conditions: human, in vivo
Experimental: To evaluate the method for rapid, non-invasive, quantitative assessment of liver function, performed before liver graft procurement, a LiMON liver function monitor, manufactured by Pulsion Medical Systems, Munich, Germany, was used for the assessment of brain-dead donor livers by measuring Indocyanine Green Plasma Disappearance Rates (ICG-PDRs). […] The LiMON monitor 102 measures Indocyanine Green (ICG) 104 clearance from the blood, after the ICG is administered intravenously to the donor, by non-invasive pulse-densitometry using, for example, a finger probe 106.
Injected ICG 202 is detected by a sensor 204 on the finger 206 from fractional pulsatile changes 208, 210 in optical absorption using LED lights 212. The optical peak absorption of 805 nm as shown in FIG. 2B and 905 nm as shown in FIG. 2C allows continuous measurements of ICG-PDR. The clearance of the injected dye from the blood (mg/l) can be calculated as:
The ICG-PDR is calculated as the ICG clearance (CICG) over time, as shown in the graph in FIG. 3.
Consecutive adult brain-dead donors in the local donation service area, whose livers were offered to the study center, were assessed for liver function using the methods of the current disclosure, after permission was acquired. Immediately prior to organ procurement, indocyanine green elimination tests were conducted using the non-invasive liver function monitoring system shown in FIG. 1 and FIG. 2A. Each patient received an ICG finger clip connected to a liver function monitor. A dose of 0.25 mg/kg ICG (ICG—PULSION, Pulsion Medical Systems) was given through a central vein as a bolus and immediately flushed with 10 mL of normal saline. All of the ICG-PDR measurements were acquired using the LiMON liver function monitor manufactured by Pulsion Medical Systems, Munich, Germany.

## CC1(C)C(/C=C/C=C/C=C/C=C2\N(CCCCS(=O)(=O)O)c3ccc4ccccc4c3C2(C)C)=[N+](CCCCS(=O)(=O)[O-])c2ccc3ccccc3c21 [ICG, Indocyanine Green]
  IGG-PDR, Mean (SD), Accepted: 24.1 (6.7) %/min
  IGG-PDR, Mean (SD), Rejected: 17.9 (4.7) %/min
  PDR, sample PULSION-LiMON ICG trace of a non-acceptable liver: 12.9 % clearance per minute
  PDR, sample PULSION-LiMON ICG trace of an accepted liver: 21.5 % clearance per minute

From patent publication US20170000405A1, “RAPID, REPRODUCIBLE, NON-INVASIVE PREDICTOR OF CADAVERIC DONOR LIVER GRAFT UTILIZATION” (THE REGENTS OF THE UNIVERSITY OF CALIFORNIA, priority 2014, published 2017)
